Reference: patent US20160039879A1, “NOVEL CYCLOSPORIN DERIVATIVES AND USES THEREOF” (S&T Global Inc., priority 2013, published 2016)
Starred links: 1 amine or outer side, 2 acyl side, 3 side chain; linkers in the order of their positions; H or OH if unused. Non-standard residues stand in square brackets, D forms with d. Residues, ends and D or L forms follow the SMILES beside them. ξ: configuration not given here. MeBmt = C/C=C/C[C@@H](C)[C@@H](O)[C@H](NC)C(=O)O; X2 = CCN(CC)CCS[C@H](C(=O)[*:2])N(C)[*:1]; NMeIle(3ξ) = CCC(C)[C@H](NC)C(=O)O; NMeL = CN[C@@H](CC(C)C)C(=O)O; NMeV = CN[C@H](C(=O)O)C(C)C; Abu = CC[C@H](N)C(=O)O

Experiments:
[1] = Stability testing: epimerization of cyclosporin derivatives in methanol, monitored by HPLC; type: physicochemical; settings: Table 9, MeOH at 50° C.-58° C.
HIV-1IIIB = assay: Anti-HIV cytoprotection assay, acute infection model in CEM-SS cells (MTS endpoint); type: cell-based; settings: HIV-1IIIB in CEM-SS cells, 6-day incubation, read-out: Antiviral activity EC50
Method: Anti-HIV activity of cyclosporine derivatives were evaluated by cytoprotection assay in an acute infection model using CEM-SS cells and either HIV-1IIIB or HIV-1 RF. Antiviral activity was determined as a reduction in virus-caused cytopathic effects when compounds prevent virus replication. Cytoprotection and compound cytotoxicity were evaluated using the tetrazollium dye MTS (Promega) to calculate cell viability following virus infection after 6-day incubation (Zhou G., et al., 2011, J. Med. Chem. 27, 7220-31; which is incorporated herein by reference).

[2] = test system: HCV replicon in cell line ET (luc-ubi-neo/ET), Huh7 human hepatoma cell line; assay: HCV subgenomic replicon assay (luciferase end point); type: cell-based; settings: Hepatitis C virus, Huh-7, Table 10, HCV replicon, read-out: Antiviral activity EC50

Epimerization % after 168 hours [1] [%] | Compound | also measured
0 | C/C=C/C[C@@H](C)[C@@H](O)[C@H]1C(=O)N[C@@H](CC)C(=O)N(C)[C@H](CSCCN(CC)CC)C(=O)N(C)[C@@H](CC(C)(C)O)C(=O)N[C@@H](C(C)C)C(=O)N(C)[C@@H](CC(C)C)C(=O)N[C@@H](C)C(=O)N[C@H](C)C(=O)N(C)[C@@H](CC(C)C)C(=O)N(C)[C@@H](CC(C)C)C(=O)N(C)[C@@H](C(C)C)C(=O)N1C (single isomer, unassigned) [Example 32, isomer B] | 
 | C/C=C/C[C@@H](C)[C@@H](O)[C@H]1C(=O)N[C@@H](CC)C(=O)N(C)[C@H](CSCCN(C)C)C(=O)N(C)[C@@H](CC(C)(C)O)C(=O)N[C@@H](C(C)C)C(=O)N(C)[C@@H](CC(C)C)C(=O)N[C@@H](C)C(=O)N[C@H](C)C(=O)N(C)[C@@H](CC(C)C)C(=O)N(C)[C@@H](CC(C)C)C(=O)N(C)[C@@H](C(C)C)C(=O)N1C (single isomer, unassigned; isomer b) | EC50 (HIV-1IIIB): 118 nM
0 | C/C=C/C[C@@H](C)[C@@H](O)[C@H]1C(=O)N[C@@H](CC)C(=O)N(C)[C@H](CSCCN(C)C)C(=O)N(C)[C@@H](CC(C)(C)O)C(=O)N[C@@H](C(C)C)C(=O)N(C)[C@@H](CC(C)C)C(=O)N[C@@H](C)C(=O)N[C@H](C)C(=O)N(C)[C@@H](CC(C)C)C(=O)N(C)[C@@H](CC(C)C)C(=O)N(C)[C@@H](C(C)C)C(=O)N1C (single isomer, unassigned) [Example 31, isomer B] | 
 | C/C=C/C[C@@H](C)[C@@H](O)[C@H]1C(=O)N[C@@H](CC)C(=O)N(C)[C@H](SCCN(CC)CC)C(=O)N(C)[C@@H](C(C)CC)C(=O)N[C@@H](C(C)C)C(=O)N(C)[C@@H](CC(C)C)C(=O)N[C@@H](C)C(=O)N[C@H](C)C(=O)N(C)[C@@H](CC(C)C)C(=O)N(C)[C@@H](CC(C)C)C(=O)N(C)[C@@H](C(C)C)C(=O)N1C (stereo partly drawn) [[(R)-2-(N,N-Diethylamino)ethylthio-Sar]-3-[NMeIle]-4-cyclosporin] (cyclo(A[dA][NMeL][NMeL][NMeV][MeBmt][Abu][X2][NMeIle(3ξ)]V[NMeL])) | EC50 [2]: 40 nM

Compound | Epimerization % after 168 hours [1] [%] | also measured
CC=CCC(C)C(O)C1C(=O)NC(CC)C(=O)N(C)C(CSCCC(CO)CCC)C(=O)N(C)C(CC(C)(C)O)C(=O)NC(C(C)C)C(=O)N(C)C(CC(C)C)C(=O)NC(C)C(=O)NC(C)C(=O)N(C)C(CC(C)C)C(=O)N(C)C(CC(C)C)C(=O)N(C)C(C(C)C)C(=O)N1C [Example 105, [(S)-((3-(R)-(Hydroxymethyl)hexyl)thio)methyl-Sar]-3-[(γ-hydroxy)-N-MeLeu]-4-cyclosporin] | 0 | 
